{
  "source": "patent US20100297330A1",
  "about": "“YOGHURT CONTAINING HYDROXYTYROSOL AND OTHER BIOPHENOLS WITH A PREVENTIVE NUTRITIONAL ACTIVITY BENEFICIAL TO HUMAN BEINGS” (priority 2007, published 2010)",
  "key": {"[1]": {"test_system": "mammals", "experiment": "toxicity in mammals (unpublished proprietary studies)", "format": "in vivo", "details": "2 g/kg of body weight"}, "[2]": {"test_system": "human cell systems", "details": "cited from earlier work"}, "[3]": {"test_system": "cell membranes", "details": "cited from earlier work"}},
  "data": [
    {"smiles": "OCCc1ccc(O)c(O)c1", "note": "[HT, Hydroxytyrosol]", "values": [
      {"measurement": "toxicity or evident alterations in the internal organs", "setting": "[1]", "value": "does not cause toxicity or evident alterations in the internal organs"},
      {"measurement": "effect on cytotoxic effects of reactive oxygen species", "setting": "[2]", "value": "effectively counteracts the cytotoxic effects"},
      {"measurement": "permeation of the cell membranes, mechanism", "setting": "[3]", "value": "passive mechanism"}
    ]}
  ]
}
